Experimental data taken from article PMC10466176, “Sequential analysis for identification of byproduct from N-benzylation reaction: wound healing and anti-inflammatory potential of the byproduct 4-chlorobenzyl 2-((4-chlorobenzyl)amino)benzoate” (RSC Advances, 2023).

Biological target: T1, COX-2 (cyclooxygenase-2) (Homo sapiens, UniProt P35354)
T1 construct: gene PTGS2
T1 sequence (P35354 18-604): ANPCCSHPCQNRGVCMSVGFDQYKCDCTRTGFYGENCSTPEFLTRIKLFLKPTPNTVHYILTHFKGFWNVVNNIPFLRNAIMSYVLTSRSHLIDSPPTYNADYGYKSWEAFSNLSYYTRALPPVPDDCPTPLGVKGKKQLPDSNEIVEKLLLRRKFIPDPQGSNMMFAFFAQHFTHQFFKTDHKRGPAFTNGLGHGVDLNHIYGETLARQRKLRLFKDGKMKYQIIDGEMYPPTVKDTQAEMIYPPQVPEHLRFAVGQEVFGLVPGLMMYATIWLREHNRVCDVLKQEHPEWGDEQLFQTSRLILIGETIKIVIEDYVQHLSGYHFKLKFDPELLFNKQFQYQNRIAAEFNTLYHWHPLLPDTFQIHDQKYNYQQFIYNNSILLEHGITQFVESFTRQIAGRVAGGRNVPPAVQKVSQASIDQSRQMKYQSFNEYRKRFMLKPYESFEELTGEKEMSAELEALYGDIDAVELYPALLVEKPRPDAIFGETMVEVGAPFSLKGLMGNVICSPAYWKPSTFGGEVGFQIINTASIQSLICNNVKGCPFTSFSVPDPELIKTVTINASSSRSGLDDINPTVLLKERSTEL
Assay: COX-2 enzyme assay with ELISA kit (SEA699Hu)
Format: biochemical

IC50: 410 nM
Structure (SMILES): O=C(OCc1ccc(Cl)cc1)c1ccccc1NCc1ccc(Cl)cc1 [CCAB, 4-chlorobenzyl 2-((4-chlorobenzyl)amino)benzoate]
